Laboratory results: ChEMBL document CHEMBL1201862, “PubChem BioAssay data set” (2004)
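1) Cells in 96-well plates. 2) Compound, 48 h, 5 concentrations. 3) Linear interpolation between surrounding doses. 4) Unreached endpoint = highest concentration. The concentration for 50% growth inhibition is given as GI50.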 Calls of active or inactive are those of the source. Rule as the data show it: active = GI50 up to about 1.1 µM and inactive = higher.

Experiments:
Test in all cases: NCI anticancer screen, dose series, 48 h
SF-295 = system: SF-295
786-0 = system: 786-0
BT-549 = system: BT-549
K562 = system: K562
SF-268 = system: SF-268
SNB-75 = system: SNB-75
DU-145 = system: DU-145
RXF 393 = system: RXF 393
OVCAR-4 = system: OVCAR-4
RPMI-8226 = system: RPMI-8226
UO-31 = system: UO-31
A549 = system: A549
ACHN = system: ACHN
SW-620 = system: SW-620
MOLT-4 = system: MOLT-4
CCRF-CEM = system: CCRF-CEM
MDA-N = system: MDA-N
NCI-H226 = system: NCI-H226
SR = system: SR

Measured: GI50

CN(C)CCCNC(=O)c1cc(NC(=O)c2cc(NC(=O)CCCn3c4ccccc4c4ccccc43)cn2C)cn1C
inactive: SF-295 18.5 µM | 786-0 13.5 µM | BT-549 15 µM | K562 3.13 µM | SF-268 13.5 µM | SNB-75 14.4 µM | DU-145 17.9 µM | RXF 393 12.6 µM | OVCAR-4 15.5 µM | RPMI-8226 3.08 µM | UO-31 25.6 µM | A549 17.5 µM | ACHN 27.2 µM | SW-620 7.94 µM | MOLT-4 2.02 µM | CCRF-CEM 7.71 µM

C=C[C@@H]1C[C@]2(C(=O)OC)Cc3nc4ccccc4nc3CC(C(=O)OC)=C2O1
inactive: SF-295 93.5 µM | 786-0 > 100 µM | BT-549 57.1 µM | MDA-N 46.8 µM | SF-268 > 100 µM | DU-145 > 100 µM | RXF 393 > 100 µM | OVCAR-4 > 100 µM | RPMI-8226 34 µM | A549 > 100 µM | ACHN > 100 µM | SW-620 58.5 µM | MOLT-4 42.5 µM | CCRF-CEM 41.8 µM

O=C(/C=C1\N=C(c2ccccc2)N(c2nc3c(Cl)cc(Cl)cc3s2)C1=O)/C=C/c1ccccc1
inactive: SF-295 > 100 µM | 786-0 > 100 µM | BT-549 > 100 µM | MDA-N 45.8 µM | K562 35 µM | SF-268 > 100 µM | SNB-75 36.5 µM | DU-145 > 100 µM | RXF 393 63.1 µM | OVCAR-4 > 100 µM | RPMI-8226 63 µM | UO-31 > 100 µM | A549 > 100 µM | ACHN > 100 µM | SW-620 72.3 µM | MOLT-4 52.1 µM | CCRF-CEM 46.7 µM

O=C(CC(=O)Nc1cccc(C(=O)O)c1)Nc1cccc(C(=O)O)c1
inactive: SF-295 > 100 µM | NCI-H226 > 100 µM | 786-0 > 100 µM | BT-549 > 100 µM | MDA-N > 100 µM | K562 > 100 µM | SF-268 > 100 µM | DU-145 > 100 µM | OVCAR-4 > 100 µM | RPMI-8226 > 100 µM | UO-31 > 100 µM | A549 > 100 µM | ACHN > 100 µM | SW-620 > 100 µM | MOLT-4 > 100 µM | CCRF-CEM > 100 µM

CC1(C)C[C@@H]2C1CCC1(C)CC2(O)CC[C@H]1O (stereo partly drawn)
inactive: SF-295 > 100 µM | SR > 100 µM | NCI-H226 > 100 µM | 786-0 > 100 µM | BT-549 > 100 µM | K562 > 100 µM | SF-268 > 100 µM | SNB-75 > 100 µM | OVCAR-4 > 100 µM | RPMI-8226 > 100 µM | UO-31 > 100 µM | A549 > 100 µM | ACHN > 100 µM | SW-620 > 100 µM | MOLT-4 > 100 µM | CCRF-CEM > 100 µM

C[n+]1c(/C=C/c2ccc(/C=N/NC(=O)c3ccc(C(=O)N/N=C/c4ccc(/C=C/c5cn6ccccc6[n+]5C)cc4)cc3)cc2)cn2ccccc21
inactive: SF-295 > 100 µM | 786-0 16.6 µM | BT-549 > 100 µM | MDA-N > 100 µM | SF-268 > 100 µM | SNB-75 > 100 µM | DU-145 > 100 µM | RPMI-8226 > 100 µM | UO-31 > 100 µM | A549 > 100 µM | ACHN > 100 µM | SW-620 > 100 µM | MOLT-4 30.9 µM | CCRF-CEM 20 µM
